Earlier results as cited in article PMC11336009 (GeroScience, 2024).

Tests used:
Conditions in all cases: cited from earlier work
rat rotenone model of PD = test system: rat rotenone model of PD
[1] = test system: rat 3-nitropropionic acid (3NP) model; parameters: method as in PMID 31728850
[2] = test system: diabetic mice after ischemic stroke; parameters: method as in PMID 24821550

N#C[C@@H]1CCCN1C(=O)CNC12CC3CC(CC(O)(C3)C1)C2 [Vildagliptin]
Effects in rat rotenone PD model (rat rotenone model of PD): mitigate striatal DA loss, neuroinflammation and motor deficits
Effects in striatum of rat 3NP model of late-stage Huntington's disease [1]: reduce neuronal degeneration and markers of oxidative stress

Cn1c(=O)cc(N2CCC[C@@H](N)C2)n(Cc2ccccc2C#N)c1=O [alogliptin]
Effects in rotenone challenged PD rats (rat rotenone model of PD; same effects as described for saxagliptin): do the same

CC#CCn1c(N2CCC[C@@H](N)C2)nc2c1c(=O)n(Cc1nc(C)c3ccccc3n1)c(=O)n2C [linagliptin]
Neural stem cell proliferation after ischemic stroke [2]: augment neural stem cell proliferation

N#C[C@@H]1C[C@@H]2C[C@@H]2N1C(=O)[C@@H](N)C12CC3CC(CC(O)(C3)C1)C2 [saxagliptin]
Effects in rat rotenone PD model (rat rotenone model of PD): preserve TH levels within the SNc and mitigate striatal declines in DA and TH levels

liraglutide (HAEGTFTSDVSSYLEGQAAKEFIAWLVRGRG; chains of the INN, looked up) [GLP-1R agonist]
Effects in rat rotenone model of PD (rat rotenone model of PD): mitigated motor deficits, striatal DA loss, SNc dopaminergic neuronal degeneration and neuroinflammation
